# In patent US20250250232A1, “AZETIDINE DERIVATIVES AND USE THEREOF AS DIPEPTIDYL PEPTIDASE 1 INHIBITORS” (CHIESI FARMACEUTICI S.P.A., priority 2022, published 2025):
# Several values for one entry are separate records, joined by “and”; a condition that tells them apart may be missing. Identical values can stand only once.
# Target: human DPP1 enzyme (Homo sapiens (Human), UniProt P53634)
# Experiment: Activity on human recombinant DPP1 isolated enzyme assay (H-Gly-Arg-AMC cleavage, fluorescence)
# Assay type: biochemical
# Settings: 0.35 nM human DPP1, 300 μM H-Gly-Arg-AMC, 30 min pre-incubation at 25° C., pH 5.0; read-out: h DPP1 pIC50 (converted)
# Protocol: Human DPP1 enzyme activity was determined by measuring release of the fluorophore aminomethyl coumarin (AMC) following enzymatic cleavage of the dipeptide substrate H-Gly-Arg-AMC. Assays were performed in black 384 well plates in 25 mM piperazine buffer, pH 5.0, containing 50 mM NaCl, 0.01% (v/v) Triton X100, 5 mM DTT with 0.35 nM human DPP1 enzyme, 300 μM H-Gly-Arg-AMC substrate (˜Km concentration) and test compounds at 0.51-10000 nM concentration range. Human DPP1 was pre-incubated with test compounds for 30 minutes at 25° C. prior to substrate incubation for a further 40 minutes at 25° C. Enzyme activity was determined by measuring fluorescence of the AMC product at excitation and emission wavelengths of 380 nm and 460 nm using a BMG LABTECH PHERA star plate reader. Test compound potencies are reported in Table 15 as pIC50 values generated from 4-parameter sigmoidal curve fitting of the measured concentration-inhibition responses.
# Sequence of human DPP1 enzyme (P53634 231-394): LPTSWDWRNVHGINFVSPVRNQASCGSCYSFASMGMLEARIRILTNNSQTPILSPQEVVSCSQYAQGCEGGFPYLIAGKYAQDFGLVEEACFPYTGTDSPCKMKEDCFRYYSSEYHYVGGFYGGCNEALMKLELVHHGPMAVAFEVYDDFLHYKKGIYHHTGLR
# Sequence of human DPP1 enzyme (P53634 25-134): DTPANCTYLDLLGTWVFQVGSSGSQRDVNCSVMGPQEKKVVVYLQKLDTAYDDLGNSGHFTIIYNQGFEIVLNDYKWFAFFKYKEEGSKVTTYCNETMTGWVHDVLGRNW
# Sequence of human DPP1 enzyme (P53634 395-463): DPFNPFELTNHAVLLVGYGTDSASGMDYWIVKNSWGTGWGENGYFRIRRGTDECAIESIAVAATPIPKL
row,SMILES,IC50
1,"COC1(C(=O)NC(C#N)Cc2ncc(-c3ccc(C#N)cc3)cc2F)CN(C)C1 (racemic) [Example 43, N-(1-cyano-2-(5-(4-cyanophenyl)-3-fluoropyridin-2-yl)ethyl)-3-methoxy-1-methylazetidine-3-carboxamide]",10 to 100 nM
2,"COC1(C(=O)NC(C#N)Cc2ncc(-c3ccc(C#N)cc3)cc2F)CN(C)C1 (single isomer, unassigned; enantiomer 1) [Example 44, enantiomer 1 of N-(1-cyano-2-(5-(4-cyanophenyl)-3-fluoropyridin-2-yl)ethyl)-3-methoxy-1-methylazetidine-3-carboxamide]",10 to 100 nM
3,"COC1(C(=O)NC(C#N)Cc2ncc(-c3ccc(C#N)cc3)cc2F)CN(C)C1 (single isomer, unassigned; enantiomer 2) [Example 45, Enantiomer 2 of N-(1-cyano-2-(5-(4-cyanophenyl)-3-fluoropyridin-2-yl)ethyl)-3-methoxy-1-methylazetidine-3-carboxamide]",1000 to 10000 nM
4,"N#Cc1ccc(-c2ccc(C[C@@H](C#N)NC(=O)C3(O)CNC3)cc2)cc1 [Example 1, (S)-N-(1-cyano-2-(4′-cyano-[1,1′-biphenyl]-4-yl)ethyl)-3-hydroxyazetidine-3-carboxamide]",100 to 1000 nM
5,"N#Cc1ccc(-c2ccc(C[C@@H](C#N)NC(=O)C3(F)CNC3)cc2)cc1 [Example 2, (S)-N-(1-cyano-2-(4′-cyano-[1,1′-biphenyl]-4-yl)ethyl)-3-fluoroazetidine-3-carboxamide]",100 to 1000 nM
6,"CC1NCC1C(=O)N[C@H](C#N)Cc1ccc(-c2ccc(C#N)cc2)cc1 (stereo partly drawn) [Example 3, N-((S)-1-cyano-2-(4′-cyano-[1,1′-biphenyl]-4-yl)ethyl)-2-methylazetidine-3-carboxamide]",1000 to 10000 nM
7,"CC1(C)NCC1C(=O)N[C@H](C#N)Cc1ccc(-c2ccc(C#N)cc2)cc1 (stereo partly drawn) [Example 4, N-((S)-1-cyano-2-(4′-cyano-[1,1′-biphenyl]-4-yl)ethyl)-2,2-dimethylazetidine-3-carboxamide]",1000 to 10000 nM
8,"CCC1(C(=O)N[C@H](C#N)Cc2ccc(-c3ccc(C#N)cc3)cc2)CNC1 [Example 5, (S)-N-(1-cyano-2-(4′-cyano-[1,1′-biphenyl]-4-yl)ethyl)-3-ethylazetidine-3-carboxamide]",100 to 1000 nM
9,"COC1(C(=O)N[C@H](C#N)Cc2ccc(-c3ccc(C#N)cc3)cc2)CNC1 [Example 6, (S)-N-(1-cyano-2-(4′-cyano-[1,1′-biphenyl]-4-yl)ethyl)-3-methoxyazetidine-3-carboxamide]",10 to 100 nM
10,"N#Cc1ccc(-c2ccc(C[C@@H](C#N)NC(=O)C3(C(F)F)CNC3)cc2)cc1 [Example 7, (S)-N-(1-cyano-2-(4′-cyano-[1,1′-biphenyl]-4-yl)ethyl)-3-(difluoromethyl)azetidine-3-carboxamide]",10 to 100 nM
11,"N#Cc1ccc(-c2ccc(C[C@@H](C#N)NC(=O)C3(CF)CNC3)cc2)cc1 [Example 8, (S)-N-(1-cyano-2-(4′-cyano-[1,1′-biphenyl]-4-yl)ethyl)-3-(fluoromethyl)azetidine-3-carboxamide]",10 to 100 nM
12,"N#Cc1ccc(-c2ccc(C[C@@H](C#N)NC(=O)C3CNC3)cc2)cc1 [Example 9, (S)-N-(1-cyano-2-(4′-cyano-[1,1′-biphenyl]-4-yl)ethyl)azetidine-3-carboxamide]",1000 to 10000 nM and 100 to 1000 nM
13,"COCC1(C(=O)N[C@H](C#N)Cc2ccc(-c3ccc(C#N)cc3)cc2)CNC1 [Example 10, (S)-N-(1-cyano-2-(4′-cyano-[1,1′-biphenyl]-4-yl)ethyl)-3-(methoxymethyl)azetidine-3-carboxamide]",1000 to 10000 nM
14,"CCOC1(C(=O)N[C@H](C#N)Cc2ccc(-c3ccc(C#N)cc3)cc2)CNC1 [Example 11, (S)-N-(1-cyano-2-(4′-cyano-[1,1′-biphenyl]-4-yl)ethyl)-3-ethoxyazetidine-3-carboxamide]",10 to 100 nM
15,"COC1(C(=O)N[C@H](C#N)Cc2ccc(-c3ccc(C#N)cc3)cc2F)CNC1 [Example 12, (S)-N-(1-cyano-2-(4′-cyano-3-fluoro-[1,1′-biphenyl]-4-yl)ethyl)-3-methoxyazetidine-3-carboxamide]",10 to 100 nM

# Same assay, conditions: human recombinant DPP1 isolated enzyme assay; read-out: pIC50 on DPP1 (converted)
row,SMILES,IC50
1,"N#Cc1ccc(-c2ccc(C[C@@H](C#N)NC(=O)C3CNC3)cc2)cc1 [Example 9, (S)-N-(1-cyano-2-(4′-cyano-[1,1′-biphenyl]-4-yl)ethyl)azetidine-3-carboxamide]",1000 to 10000 nM
